Experimental data taken from patent US9730445B2, “Herbicidal compositions comprising 4-amino-3-chloro-5-fluoro-6-(4-chloro-2-fluoro-3-methoxyphenyl) pyridine-2-carboxylic acid or a derivative thereof and fungicides” (DOW AGROSCIENCES LLC, priority 2013, dated 2017).

Key:
Assay in all cases: Postemergence foliar-applied weed control, direct-seeded rice (greenhouse)
DIGSA = assay type: in vivo, Digitaria sanguinalis (L.) Scop. (large crabgrass)
From the text: (§1) Seeds or nutlets of the desired test plant species were planted in a soil matrix prepared by mixing aloam or sandy loam soil (e.g., 28.6 percent silt, 18.8 percent clay, and 52.6 percent sand, with a pH of about 5.8 and an organic matter content of about 1.8 percent) and calcareous grit in an 80 to 20 ratio. The soil matrix was contained in plastic pots with a volume of 1 quart and a surface area of 83.6 square centimeters (cm^2). When required to ensure good germination and healthy plants, a fungicide treatment and/or other chemical or physical treatment was applied. The plants were grown for 8-22 days in a greenhouse with an approximate 14 hour (h) photoperiod which was maintained at about 29° C. during the day and 26° C. during the night. Nutrients (Peters Excel® 15-5-15 5-Ca 2-Mg and iron chelate) were applied in the irrigation solution as needed and water was added on a regular basis. Supplemental lighting was provided with overhead metal halide 1000-Watt lamps as necessary. The plants were employed for testing when they reached the first through fourth true leaf stage.
(§2) Treatments consisted of the acid or esters of 4-amino-3-chloro-5-fluoro-6-(4-chloro-2-fluoro-3-methoxy-phenyl)pyridine-2-carboxylic acid (Compound A), each formulated as an SC (suspension concentrate), and various fungicidal components alone and in combination. Forms of compound A were applied on an acid equivalent basis.
Treatment requirements were calculated based upon the rates being tested, the concentration of active ingredient or acid equivalent in the formulation and a 12 milliliter (mL) application volume at a rate of 187 liters per hectare (L/ha).
(§3) For treatments comprised of formulated compounds, measured amounts of compounds were placed individually in 25 mL glass vials and diluted in a volume of 1.25% volume per volume (v/v) Agri-Dex® crop oil concentrate to obtain 12× stock solutions. […] Application solutions were prepared by adding an appropriate amount of each stock solution (e.g., 1 mL) and diluted to the appropriate final concentrations with the addition of […] of an aqueous mixture of 1.25% (v/v) crop oil concentrate so that the final spray solutions contained 1.25+/−0.05% (v/v) crop oil concentrate.
(§4) For treatments comprised of technical compounds, weighed amounts can be placed individually in 25 mL glass vials and dissolved in a volume of 97:3 volume per volume (v/v) acetone/dimethyl sulfoxide (DMSO) to obtain 12× stock solutions. […] When technical materials are used, the concentrated stock solutions can be added to the spray solutions so that the final acetone and DMSO concentrations of the application solutions are 16.2% and 0.5%, respectively.
(§5) As required, additional water and/or 97:3 v/v acetone/DMSO was added to individual application solutions so that the final acetone and DMSO concentrations of the application solutions being compared were 8.1% and 0.25%, respectively
(§6) All stock solutions and applications solutions were visually inspected for compound compatibility prior to application. Spray solutions were applied to the plant material with an overhead Mandel track sprayer equipped with 8002E nozzles calibrated to deliver 187 L/ha over an application area of 0.503 square meters (m^2) at a spray height of 18 to 20 inches (46 to 50 cm) above average plant canopy height. Control plants were sprayed in the same manner with the solvent blank.
(§7) The treated plants and control plants were placed in a greenhouse as described above and watered by sub-irrigation to prevent wash-off of the test compounds. After approximately 3 weeks, the condition of the test plants as compared with that of the untreated plants was determined visually and scored on a scale of 0 to 100 percent where 0 corresponds to no injury or growth inhibition and 100 corresponds to complete kill. […]

ECHCG = assay type: in vivo, Echinochloa crus-galli (L.) P. Beauv. (barnyardgrass)
Experimental: as §1, with “When required to ensure good germination and healthy plants, a fungicide treatment and/or other chemical or physical treatment was applied.” left out
as §2, §3, §4, §5, §6
(§8) The treated plants and control plants were placed in a greenhouse as described above and watered by sub-irrigation to prevent wash-off of the test compounds. After approximately 3 weeks, the condition of the test plants as compared with that of the untreated plants was determined visually and scored on a scale of 0 to 100 percent where 0 corresponds to no injury or growth inhibition and 100 corresponds to complete kill.
(§9) Colby's equation was used to determine the herbicidal effects expected from the mixtures (Colby, S. R. Calculation of the synergistic and antagonistic response of herbicide combinations. Weeds 1967, 15, 20-22.).
(§10) The following equation was used to calculate the expected activity of mixtures containing two active ingredients, A and B: Expected=A+B−(A×B/100)

ECHOR = assay type: in vivo, Echinochloa oryzoides (Ard.) Fritsch (early watergrass)
Experimental: as §1, with “When required to ensure good germination and healthy plants, a fungicide treatment and/or other chemical or physical treatment was applied.” left out
as §2
For treatments comprised of formulated compounds, measured amounts of compounds were placed individually in 25 mL glass vials and diluted in a volume of 1.25% volume per volume (v/v) Agri-Dex® crop oil concentrate to obtain 12× stock solutions. […]
as §7

IPOHE = assay type: in vivo, Ipomoea hederacea (L.) Jacq. (ivyleaf morningglory)
Experimental: as §1, with “When required to ensure good germination and healthy plants, a fungicide treatment and/or other chemical or physical treatment was applied.” left out
as §2, §3, §4, §5, §6, §8, §9, §10

LEFCH = assay type: in vivo, Leptochloa chinensis (L.) Nees (Chinese sprangletop); conditions: 21 DAA
Experimental: as §1, with “When required to ensure good germination and healthy plants, a fungicide treatment and/or other chemical or physical treatment was applied.” left out
as §2, §3, §4, §5, §6, §8, §9, §10

CYPES = assay type: in vivo, Cyperus esculentus L. (yellow nutsedge); conditions: r45 ester 8 g ae/ha alone, r46-48 kasugamycin 17.5/35/70 g ai/ha alone, r49-51 ester 8 + 17.5/35/70
Experimental: as §1, with “When required to ensure good germination and healthy plants, a fungicide treatment and/or other chemical or physical treatment was applied.” left out
as §2, §3, §4, §5, §6, §7

CYPIR = assay type: in vivo, Cyperus iria L. (rice flatsedge); conditions: 21 DAA, r29-30 ester 8/16 g ae/ha alone, r31-33 kasugamycin 17.5/35/70 g ai/ha alone, r34-39 ester 8/16 at each of 17.5, 35, 70
Experimental: as §1, with “When required to ensure good germination and healthy plants, a fungicide treatment and/or other chemical or physical treatment was applied.” left out
as §2, §3, §4, §5, §6, §8, §9, §10

[1] = r9-11 acid 5.3/10.6/21.2 g ae/ha alone, r12 difenoconazole 200 g ai/ha alone, r13-15 acid 5.3/10.6/21.2 + 200
[2] = r10-12 ester 4.38/8.75/17.5 g ae/ha alone, r13 difenoconazole 200 g ai/ha alone, r14-16 ester 4.38/8.75/17.5 + 200
[3] = r9-11 ester 8/16/32 g ae/ha alone, r12-14 kasugamycin 17.5/35/70 g ai/ha alone, r15-23 ester 8/16/32 at each of 17.5, 35, 70

CC1COC(Cn2cncn2)(c2ccc(Oc3ccc(Cl)cc3)cc2Cl)O1 (mixture of isomers) [Difenoconazole, cis, trans-3-chloro-4-[4-methyl-2-(1H-1,2,4-triazol-1-ylmethyl)-1,3,dioxolan-2-yl]phenyl 4-chlorophenyl ether, reference compound]
0%: Visual Weed Control (%)—21 DAA DIGSA Obs (DIGSA; [1]) | Visual Weed Control (%) - 22 DAA DIGSA Obs (DIGSA; 22 DAA, r22-24 ester 8/16/32 g ae/ha alone, r25-27 difenoconazole 50/100/200 g ai/ha alone, r28-36 ester 8/16/32 at each of 50, 100, 200) | Visual Weed Control (%)—21 DAA ECHCG Obs (ECHCG; [1]) | Visual Weed Control (%) - 21 DAA ECHCG Obs (ECHCG; r58-60 ester 8/16/32 g ae/ha alone, r61-63 difenoconazole 50/100/200 g ai/ha alone, r64-72 ester 8/16/32 at each of 50, 100, 200) | Visual Weed Control (%) - 21 DAA ECHOR Obs (ECHOR; r78-80 ester 8/16/32 g ae/ha alone, r81-83 difenoconazole 50/100/200 g ai/ha alone, r84-92 ester 8/16/32 at each of 50, 100, 200) | Visual Weed Control (%) - 21 DAA IPOHE Obs (IPOHE; [2]) | Visual Weed Control (%)—21 DAA LEFCH Obs (LEFCH; [1]) | Visual Weed Control (%) - 21 DAA LEFCH Obs (LEFCH; [2]) | Visual Weed Control (%) - 21 DAA LEFCH Obs (LEFCH; r42-43 ester 16/32 g ae/ha alone, r44-46 difenoconazole 50/100/200 g ai/ha alone, r47-52 ester 16/32 at each of 50, 100, 200)

CC1OC(OC2C(O)C(O)C(O)C(O)C2O)C(N)CC1NC(=N)C(=O)O.Cl [Kasugamycin, 1L-1,3,4/2,5,6-1-deoxy-2,3,4,5,6,-pentahydroxycyclohexyl 2-amino-2,3,4,6-tetradeoxy-4-(α-iminoglycino)-α-D-arabino-hexopyranoside hydrochloride hydrate, reference compound]
0%: Visual Weed Control (%)—21 DAA CYPES Obs (CYPES) | Visual Weed Control (%)—21 DAA CYPIR Obs (CYPIR) | Visual Weed Control (%)—21 DAA DIGSA Obs (DIGSA; [3]) | Visual Weed Control (%)—21 DAA ECHOR Obs (ECHOR; [3]) | Visual Weed Control (%)—21 DAA IPOHE Obs (IPOHE; [3]) | Visual Weed Control (%)—21 DAA LEFCH Obs (LEFCH; [3])
